Measured values reported in US7557244B2, “Substituted biphenyl carboxylic acids and derivatives thereof” (Ortho-McNeil Pharmaceutical, Inc., priority 2006, dated 2009).

Tested on: γ-secretase
Assay: Screening for γ-secretase-modulating activity, Aβ 42 in SKNBE2 cells carrying APP 695-wild type
Type: cell-based
Details: for EC50: read-out: WTAPP SKNBE2 Aβ 42 EC50
Experimental: Screening of the Compounds of the Invention for γ-Secretase-Modulating Activity
Screening was carried out using SKNBE2 cells carrying the APP 695-wild type, grown in DMEM/NUT-mix F12 (HAM) provided by Gibco (cat no. 31330-38) containing 5% Serum/Fe supplemented with 1% non-essential amino acids.
Cells were grown to near confluency.
The screening was performed using the assay as described in Citron et al (1997) Nature Medicine 3: 67.
IC50-Values of Selected Compounds of the Invention on the γ-Secretase Activity.

Row | EC50 [nM] | SMILES | WTAPP SKNBE2 Aβ 42 % Inhibition at 3 μM [%]
1 | 240 | CC(C)CC(C(=O)O)c1cc(Nc2cc(C(F)(F)F)ccc2C(F)(F)F)cc(-c2cc(C(F)(F)F)cc(C(F)(F)F)c2)c1 (stereo not drawn) [Compound 44, 2-[5-(2,5-Bis-trifluoromethyl-phenylamino)-3′,5′-bis-trifluoromethyl-biphenyl-3-yl]4-methyl-pentanoic acid] | 
2 | 280 | CC(C)CC(C(=O)O)c1cc(Nc2ccc(F)cc2C(F)(F)F)cc(-c2ccc(C(F)(F)F)cc2)c1 (stereo not drawn) [Compound 9, 2-[5-(4-Fluoro-2-trifluoromethyl-phenylamino)-4′-trifluoromethyl-biphenyl-3-yl]-4-methyl-pentanoic acid] | 
3 |  | COc1ccc(Oc2cc(-c3ccc(C(F)(F)F)cc3)cc(C(CC(C)C)C(=O)O)c2)cc1 (stereo not drawn) [Compound 28, 2-[5-(4-Methoxy-phenoxy)-4′-trifluoromethyl-biphenyl-3-yl]-4-methyl-pentanoic acid] | −3
4 |  | CC(C)CC(C(=O)O)c1cc(Oc2ccccc2)cc(-c2ccc(C(F)(F)F)cc2)c1 (stereo not drawn) [Compound 24, 4-Methyl-2-(5-phenoxy-4′-trifluoromethyl-biphenyl-3-yl)-pentanoic acid] | 45
5 |  | CC(C)CC(C(=O)O)c1cc(Oc2cccc(C(F)(F)F)c2)cc(-c2ccc(Cl)c(C(F)(F)F)c2)c1 (stereo not drawn) [Compound 22, 4-Methyl-2-[4′-chloro-3′-trifluoromethyl-5-(3-trifluoromethylphenoxy)-biphenyl-3-yl]-pentanoic acid] | 81
6 |  | CC(C)CC(C(=O)O)c1cc(Nc2ccc(F)cc2)cc(-c2ccc(C(F)(F)F)cc2)c1 (stereo not drawn) [Compound 6, 2-[5-(4-Fluoro-phenylamino)-4′-trifluoromethyl-biphenyl-3-yl]-4-methyl-pentanoic acid] | 66
7 |  | COc1ccc(Oc2cc(-c3ccc(C(F)(F)F)cc3)cc(C(CC(C)C)C(=O)O)c2)cc1C(F)(F)F (stereo not drawn) [Compound 19, 2-[5-(4-Methoxy-3-trifluoromethyl-phenoxy)-4′-trifluoromethyl-biphenyl-3-yl]-4-methyl-pentanoic acid] | 22
8 |  | CC(C)CC(C(=O)O)c1cc(Oc2cccc(C(C)C)c2)cc(-c2ccc(C(F)(F)F)cc2)c1 (stereo not drawn) [Compound 15, 2-[5-(3-Isopropyl-phenoxy)-4′-trifluoromethyl-biphenyl-3-yl]-4-methyl-pentanoic acid] | 65
9 |  | CC(C)CC(C(=O)O)c1cc(Oc2ccc(F)cc2)cc(-c2ccc(C(F)(F)F)cc2)c1 (stereo not drawn) [Compound 25, 2-[5-(4-Fluoro-phenoxy)-4′-trifluoromethyl-biphenyl-3-yl]-4-methyl-pentanoic acid] | 54
10 | 260 | CC(C)CC(C(=O)O)c1cc(Oc2cc(F)cc(C(F)(F)F)c2)cc(-c2cc(C(F)(F)F)cc(C(F)(F)F)c2)c1 (stereo not drawn) [Compound 34, 2-[5-(3-Fluoro-5-trifluoromethyl-phenoxy)-3′,5′-bis-trifluoromethyl-biphenyl-3-yl]-4-methyl-pentanoic acid] | 
11 |  | CC(C)CC(C(=O)O)c1cc(Nc2ccc(F)cc2C(F)(F)F)cc(-c2cc(C(F)(F)F)cc(C(F)(F)F)c2)c1 (stereo not drawn) [Compound 45, 2-[5-(4-Fluoro-2-trifluoromethyl-phenylamino)-3′,5′-bis-trifluoromethyl-biphenyl-3-yl]-4-methyl-pentanoic acid] | 85
12 | 660 | CC(C)CC(C(=O)O)c1cc(Oc2cccc(C(F)(F)F)c2)cc(-c2ccc(C(F)(F)F)cc2)c1 (stereo not drawn) [Compound 20, 2 4-Methyl-2-[4′-trifluoromethyl-5-(3-trifluoromethyl-phenoxy)-biphenyl-3-yl]-pentanoic acid] | 
13 |  | COc1cc(Oc2cc(-c3ccc(C(F)(F)F)cc3)cc(C(CC(C)C)C(=O)O)c2)ccc1F (stereo not drawn) [Compound 18, 2-[5-(4-Fluoro-3-methoxy-phenoxy)-4′-trifluoromethyl-biphenyl-3-yl]-4-methyl-pentanoic acid] | 19
14 | 330 | CC(C)CC(C(=O)O)c1cc(Nc2cc(C(F)(F)F)ccc2C(F)(F)F)cc(-c2cc(F)cc(C(F)(F)F)c2)c1 (stereo not drawn) [Compound 40, 2-[5′-Fluoro-5-(2,5-bis-trifluoromethyl-phenylamino)-3′-trifluoromethyl-biphenyl-3-yl]-4-methyl-pentanoic acid] | 
15 |  | CC(C)CC(C(=O)O)c1cc(Nc2ccc(F)cc2C(F)(F)F)cc(-c2cc(F)cc(C(F)(F)F)c2)c1 (stereo not drawn) [Compound 41, 2-[5′-Fluoro-5-(4-fluoro-2-trifluoromethyl-phenylamino)-3′-trifluoromethyl-biphenyl-3-yl]-4-methyl-pentanoic acid] | 67
16 |  | CC(C)CC(C(=O)O)c1cc(Oc2cccc(C(F)(F)F)c2)cc(-c2cc(F)cc(C(F)(F)F)c2)c1 (stereo not drawn) [Compound 31, 2-[3′-Fluoro-5′-trifluoromethyl-5-(3-trifluoromethyl-phenoxy)-biphenyl-3-yl]-4-methyl-pentanoic acid] | 84
17 | 420 | CC(C)CC(C(=O)O)c1cc(Nc2cc(Cl)cc(Cl)c2)cc(-c2ccc(C(F)(F)F)cc2)c1 (stereo not drawn) [Compound 7, 2-[5-(3,5-Dichloro-phenylamino)-4′-trifluoromethyl-biphenyl-3-yl]-4-methyl-pentanoic acid] | 

Row | EC50 [nM] | SMILES | WTAPP SKNBE2 Aβ 42 % Inhibition at 3 μM [%]
18 | 110 | CC(C)CC(C(=O)O)c1cc(Nc2cc(F)cc(C(F)(F)F)c2)cc(-c2ccc(Cl)c(C(F)(F)F)c2)c1 (stereo not drawn) [Compound 38, 2-[4′-Chloro-5-(3-fluoro-5-trifluoromethyl-phenylamino)-3′-trifluoromethyl-biphenyl-3-yl]-4-methyl-pentanoic acid] | 
19 |  | CC(C)CC(C(=O)O)c1cc(Nc2cc(C(F)(F)F)cc(C(F)(F)F)c2)cc(-c2cc(F)cc(C(F)(F)F)c2)c1 (stereo not drawn) [Compound 42, 2-[5′-Fluoro-5-(3,5-bis-trifluoromethyl-phenylamino)-3′-trifluoromethyl-biphenyl-3-yl]-4-methyl-pentanoic acid] | 75
20 |  | CC(C)CC(C(=O)O)c1cc(Nc2ccc(F)cc2F)cc(-c2ccc(C(F)(F)F)cc2)c1 (stereo not drawn) [Compound 2, 2-[5-(2,4-Difluoro-phenylamino)-4′-trifluoromethyl-biphenyl-3-yl]-4-methyl-pentanoic acid] | 62
21 | 1850 | CC(C)CC(C(=O)O)c1cc(Oc2cc(F)c(F)c(F)c2)cc(-c2ccc(C(F)(F)F)cc2)c1 (stereo not drawn) [Compound 17, 4-Methyl-2-[4′-trifluoromethyl-5-(3,4,5-trifluoro-phenoxy)-biphenyl-3-yl]-pentanoic acid] | 
22 | 2250 | CC(C)CC(C(=O)O)c1cc(Oc2ccc(C(F)(F)F)cc2)cc(-c2ccc(C(F)(F)F)cc2)c1 (stereo not drawn) [Compound 16, 4-Methyl-2-[4′-trifluoromethyl-5-(4-trifluoromethyl-phenoxy)-biphenyl-3-yl]-pentanoic acid] | 
23 |  | CC(C)CC(C(=O)O)c1cc(Oc2cc(F)cc(F)c2)cc(-c2ccc(Cl)c(C(F)(F)F)c2)c1 (stereo not drawn) [Compound 23, 4-Methyl-2-[4′-chloro-3′-trifluoromethyl-5-(3,5-difluorophenoxy)-biphenyl-3-yl]-pentanoic acid] | 80
24 |  | CC(C)CC(C(=O)O)c1cc(Oc2ccc(Cl)cc2)cc(-c2ccc(C(F)(F)F)cc2)c1 (stereo not drawn) [Compound 29, 2-[5-(4-Chloro-phenoxy)-4′-trifluoromethyl-biphenyl-3-yl]-4-methyl-pentanoic acid] | 62
25 | 500 | CC(C)CC(C(=O)O)c1cc(Nc2ccc(C(F)(F)F)cc2)cc(-c2ccc(C(F)(F)F)cc2)c1 (stereo not drawn) [Compound 11, 4-Methyl-2-[4′-trifluoromethyl-5-(4-trifluoromethyl-phenylamino)-biphenyl-3-yl]-pentanoic acid] | 
26 | 290 | CC(C)CC(C(=O)O)c1cc(Nc2ccc(C(C)C)cc2)cc(-c2ccc(C(F)(F)F)cc2)c1 (stereo not drawn) [Compound 4, 2-[5-(4-Isopropyl-phenylamino)-4′-trifluoromethyl-biphenyl-3-yl]-4-methyl-pentanoic acid] | 
27 |  | CC(C)CC(C(=O)O)c1cc(Oc2cccc(C(F)(F)F)c2)cc(-c2cc(C(F)(F)F)cc(C(F)(F)F)c2)c1 (stereo not drawn) [Compound 35, 2-[3′,5′-Bis-trifluoromethyl-5-(3-trifluoromethyl-phenoxy)-biphenyl-3-yl]-4-methyl-pentanoic acid] | 90
28 | 410 | CC(C)CC(C(=O)O)c1cc(Nc2cccc(C(F)(F)F)c2)cc(-c2ccc(C(F)(F)F)cc2)c1 (stereo not drawn) [Compound 10, 4-Methyl-2-[4′-trifluoromethyl-5-(3-trifluoromethyl-phenylamino)-biphenyl-3-yl]-pentanoic acid] | 
29 | 770 | CC(C)CC(C(=O)O)c1cc(Oc2cc(F)cc(F)c2)cc(-c2ccc(C(F)(F)F)cc2)c1 (stereo not drawn) [Compound 27, 2-[5-(3,5-Difluoro-phenoxy)-4′-trifluoromethyl-biphenyl-3-yl]-4-methyl-pentanoicacid] | 
30 | 460 | CC(C)CC(C(=O)O)c1cc(Nc2cc(C(F)(F)F)cc(C(F)(F)F)c2)cc(-c2ccc(Cl)c(C(F)(F)F)c2)c1 (stereo not drawn) [Compound 37, 2-[5-(3,5-Bis-trifluoromethyl-phenylamino)-4′-chloro-3′-trifluoromethyl-biphenyl-3-yl]-4-methyl-pentanoic acid] | 
31 | 300 | CC(C)CC(C(=O)O)c1cc(Nc2cc(C(F)(F)F)cc(C(F)(F)F)c2)cc(-c2ccc(C(F)(F)F)cc2)c1 (stereo not drawn) [Compound 3, 2-[5-(3,5-Bis-trifluoromethyl-phenylamino)-4′-trifluoromethyl-biphenyl-3-yl]-4-methyl-pentanoic acid] | 
32 |  | CC(C)CC(C(=O)O)c1cc(Nc2ccc(C#N)cc2)cc(-c2ccc(C(F)(F)F)cc2)c1 (stereo not drawn) [Compound 13, 2-[5-(4-Cyano-phenylamino)-4′-trifluoromethyl-biphenyl-3-yl]-4-methyl-pentanoic acid] | 52
33 |  | CC(C)CC(C(=O)O)c1cc(Oc2cc(F)cc(F)c2)cc(-c2cc(C(F)(F)F)cc(C(F)(F)F)c2)c1 (stereo not drawn) [Compound 36, 2-[5-(3,5-Difluoro-phenoxy)-3′,5′-bis-trifluoromethyl-biphenyl-3-yl]-4-methyl-pentanoic acid] | 90
